The text below walks through data of patent publication US20250082733A1, “m6A mRNA MODIFICATION IN CANCER TREATMENT” (CITY OF HOPE, priority 2017, published 2025).

Experiment [1] has as its system PBT726. In words: Cell growth assay, MA2-treated GSCs (PBT726). Type of experiment: cell-based, human. The following applies: 48 h. Here is the method: (§1) Treatment of GSCs with the FTO inhibitor MA2: GSCs were seeded at 5×10^4 cells per well in 48-well plates and cultured overnight. These cells were treated with MA2, a chemical inhibitor of FTO (Huang et al., 2015) at 20, 40, 60, 80 μM or vehicle control and cultured for 48 h. Cell number was counted using a hemocytometer. To determine the effect of MA2 on the level of m^6A RNA modification, GSCs were treated with 50 μM MA2 for 48 h. mRNAs were prepared and subjected to m^6A dot blot assay. To test the effect of MA2 in limiting dilution assay, GSCs were treated at 40 μM or vehicle control for two weeks.

Experiment [2] relates to PBT003 cells. In words: Intratumoral MA2 in PBT003-grafted NSG mice. Type of experiment: in vivo. The following applies: vs vehicle control. The method, then:
Introcranial delivery of the FTO inhibitor MA2: PBT003 cells (2×10^5) transduced with luciferase expressing lentivirus were intracranially transplanted into the frontal lobe of NSG mice at the same coordinates as described above. One week after transplantation, tumors were detected by bioluminescence imaging and mice were treated with MA2 (5 μl of 600 μM MA2 in 1% DMSO in PBS per mouse) or vehicle control by intratumoral injection once a week for four weeks. Tumor growth was monitored by bioluminescence imaging every week for six weeks. The bioluminescence intensity was quantified.
To test the effect of the FTO inhibitor on GSC-initiated tumorigenesis, PBT003-grafted mice were treated with the selective FTO inhibitor MA2 intratumorally once a week for four weeks (FIG. 11d). Tumor formation was monitored by bioluminescence xenogen imaging.

Experiment [3] deals with normal neural stem cells (NSC) line NSC006. In words: Cell growth assay, control cells (NSC006). Type of experiment: cell-based.
Experiment [4] deals with GSCs. In words: Limiting dilution assay of GSCs treated with MA2. Type of experiment: cell-based, human. The following applies: 40 μM, two weeks, vs control cells. The method, then: Limiting dilution assay: GSCs were transduced with relevant shRNA or METTL3-expressing lentivirus. The transduced GSCs were seeded at 1, 5, 10, 20, 50 and 100 cells per well into 96-well plates. The number of neurospheres in each well was counted two weeks after seeding cells. Extreme limiting dilution analysis was performed using software available at http://bioinf.wehi.edu.au/software/elda.
as §1

Experiment [5] deals with FTO (Homo sapiens, UniProt Q9C0B1). The note with it: Huang et al., 2015; cited from earlier work.
Chain of FTO (Q9C0B1 whole entry): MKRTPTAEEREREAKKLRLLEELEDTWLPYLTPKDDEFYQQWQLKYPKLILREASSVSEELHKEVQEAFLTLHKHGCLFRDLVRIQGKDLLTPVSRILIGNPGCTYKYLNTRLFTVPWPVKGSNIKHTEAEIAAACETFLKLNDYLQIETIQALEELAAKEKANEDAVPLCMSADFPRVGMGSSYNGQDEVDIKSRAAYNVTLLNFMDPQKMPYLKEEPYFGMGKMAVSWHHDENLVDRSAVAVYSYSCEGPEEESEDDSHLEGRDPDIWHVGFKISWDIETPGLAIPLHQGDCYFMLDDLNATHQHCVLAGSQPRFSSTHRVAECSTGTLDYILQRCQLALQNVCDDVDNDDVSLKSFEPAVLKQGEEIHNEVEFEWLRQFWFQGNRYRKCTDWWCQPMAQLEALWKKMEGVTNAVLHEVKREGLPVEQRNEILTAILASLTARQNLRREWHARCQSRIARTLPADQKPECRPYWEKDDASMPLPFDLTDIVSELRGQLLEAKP
Experiment [6] has as its system PBT111. As to the kind of experiment: Cell growth assay, MA2-treated GSCs (PBT111). Type of experiment: cell-based, human. The following applies: 48 h. Here is the method:
as §1

Experiment [7] relates to mRNA m^6A level in GSCs. In words: m6A mRNA dot blot of GSCs treated with MA2. Type of experiment: cell-based, human. The following applies: 50 μM MA2, 48 h, vs vehicle control. The method, then:
m^6A dot blot assay: GSCs were either maintained in sphere cultures or induced into differentiation for 1 week using 0.5% fetal bovine serum (Sigma) together with 1 μM all-trans retinoic acid (Sigma). Total RNAs were isolated from these GSCs using Trizol reagent (Ambion). GSCs were transduced with lentivirus expressing METTL3 or METTL14 shRNA or METTL3 cDNA. Seven days after transduction, total RNAs were extracted. mRNAs were prepared from total RNAs using Dynabeads® mRNA purification kit (Ambion, Catalog #61006). Indicated amount of mRNAs was used for dot blot analysis using an antibody specific for m^6A (1:1,000; Synaptic Systems; Catalog #202003). The intensity of dot blot signal was quantified by Image J.
as §1

The subject of experiment [8] is PBT707. In words: Cell growth assay, MA2-treated GSCs (PBT707). Type of experiment: cell-based, human. The note with it: 48 h. Here is the method: as §1
Experiment [9] relates to GSCs. As to the kind of experiment: Sphere formation assay of METTL3 or METTL14 KD GSCs with MA2. Type of experiment: cell-based, human. The following applies: together with MA2. Here is the method:
Sphere formation assay: The sphere formation assay was performed as previously described (Cui et al., 2016). Briefly, three days after viral transduction, the transduced cells were seeded at 1 cell per well in 96-well plates (for those associated with the limiting dilution assay) or 100 cells per well in 48-well plates and cultured for 2 weeks. The sphere number was counted under microscope. The sphere formation rate was defined as the percentage of sphere-forming cells out of the number of starting cells.

Experiment [10] deals with brain astrocytes. In words: Cell growth assay, control cells (astrocytes). Type of experiment: cell-based.
Experiment [11] has as its system PBT003 cells. As to the kind of experiment: Cell growth assay, MA2-treated GSCs (PBT003). Type of experiment: cell-based, human. The note with it: PBT003, 60 μM and 80 μM, 48 h. The method, then:
as §1

Experiment [12] concerns ADAM19, EPHA3, and KLF4 expression in PBT003 cells. As to the kind of experiment: RT-PCR of oncogene expression in GSCs. Type of experiment: cell-based, human. The method, then: RT-PCR: Total RNAs isolated using Trizol reagent (Ambion) were subjected to reverse transcription (RT) performed using the Tetro cDNA synthesis Kit (BioLINE). RT-PCR reactions were performed using SYBR Green Master Mix (Thermo Scientific) on the Step One Plus Real-Time PCR instrument (Applied Biosystems). The primers for RT-PCR include METLL3 (F 5′-TCAGCATCGGAACCAGCAAAG-3′ (SEQ ID NO: 8); R 5′-TCCTGACTGACCTTCTTGCTC-3′ (SEQ ID NO: 9)), METLL14 (F 5′-GTTGGAACATGGATAGCCGC-3′ (SEQ ID NO: 10); R 5′-CAATGCTGTCGGCACTTTCA-3′ (SEQ ID NO: 11)), CD44 (F 5′-TGAGCATCGGATTTGAGACC-3′ (SEQ ID NO: 12); R 5′-TGTCATACTGGGAGGTGTTGG-3′ (SEQ ID NO: 13)), ADAM19 (F 5′-CCTGGATGGACAAGAGGAAG-3′ (SEQ ID NO: 14); R 5′-CTCAGCTTTGAGTGGATGCT-3′ (SEQ ID NO: 15)), EPAH3 (F 5′-GGGCTGGATCTCTTATCCATC-3′ (SEQ ID NO: 16); R 5′-GGACCCAGTTTGTTCTCAGC-3′ (SEQ ID NO: 17)), KLF4 (F 5′-AAGAGTTCCCATCTCAAGGC-3′ (SEQ ID NO: 18); R 5′-CCGTGTGTTTACGGTAGTGC-3′ (SEQ ID NO: 19)), and ACTIN (F 5′-CCGCAAAGACCTGTACGCCAAC-3′ (SEQ ID NO: 20); R 5′-CCAGGGCAGTGATCTCCTTCTG-3′ (SEQ ID NO: 21)). ACTIN was included as the reference gene for normalization. The ΔΔCt method was used for quantification analysis.

The test system of experiment [13] is HeLa cells. As to the kind of experiment: Cell growth assay, control cells (HeLa). Type of experiment: cell-based.

As to `CCOC(=O)c1ccccc1Nc1c(Cl)ccc(C)c1Cl` [MA2, ethyl ester form of meclofenamic acid (MA)], the cell growth entry was “suppressed the growth” in experiment [1] (PBT726, 40 μM); “substantial inhibitory effect” in experiment [1] (PBT726, 60 μM and 80 μM); “no substantial effect” in experiment [3] (NSC006, up to 60 μM); “Mild effect” in experiment [3] (NSCs, 80 μM); “inhibited the growth” in experiment [6] (PBT111, 20 μM and 40 μM); “substantial inhibitory effect” in [6] (PBT111, 60 μM and 80 μM). Further, the cell growth result in [8] (PBT707, 40 μM) is “suppressed the growth”; in experiment [8] (PBT707, 60 μM and 80 μM) it was “substantial inhibitory effect”; in experiment [10] (astrocytes, 80 μM) it was “Mild effect”; in experiment [10] (brain astrocytes, up to 60 μM), “no substantial effect”; in experiment [11], “dramatic growth inhibitory effect”; in experiment [13] (80 μM) it was “Mild effect”. For the same compound, the cell growth result in experiment [13] (up to 60 μM) is “no substantial effect”. In addition, the tumor luciferase activity result in experiment [2] (4 or 5 weeks after compound treatment) is listed as “significant decrease”. The “tumor size by bioluminescence xenogen imaging” value in experiment [2] (intratumoral, once a week for four weeks) is “much smaller tumors”. In addition, the survival entry in experiment [2] (log-rank test) is given as “substantially prolonged survival”. Also, the “self-renewal of GSCs (stem cell frequency)” value in [4] is listed as “dramatically inhibited the self-renewal”. The FTO inhibition result in [5] is reported as “selective inhibitor of FTO”. In experiment [7], the “mRNA m^6A level” value is recorded as “substantial increase”. Also, the sphere formation rate entry in [9] was “reversed the effect of elevated sphere formation rate”. The “expression of ADAM19, EPHA3, and KLF4” value in experiment [12] is given as “decreased expression”.
